The test system of one assay is DU145 cells. The experiment in a line: RT-PCR of SNAI1 and CD274 in DU145 cells after T2D exosomes plus JQ1 or MZ-1. The assay is classed as cell-based, human. The following applies: MZ-1 50 nM, JQ1 400 nM. As to the method: (FIG. 19A) Expression of SNAI1 and CD274 genes in DU145 cells measured by RT-PCR of cellular RNA after exosome treatment. T2D exosomes (109; T2D Exo) were compared to media only control exosomes (Control), or T2D Exo+JQ1 or MZ1. (JQ1 is a pan-BET inhibitor (400 nM) and MZ-1 is a BRD4-selective degrader (50 nM)). (FIG. 19B) Expression of PD-L1 was measured by flow cytometry after treatments. One million events were analyzed by Flow-Jo and presented as overlaid histograms (control, red trace; experimental, black trace). (FIG. 19C) Flow cytometry data of FIG. 19B were quantified with PD-L1 as percent of parent population. The experiment was conducted in triplicate with differences between means represented as bar graphs. Data were analyzed by two-way ANOVA with statistical significance presented as: ****, P<0.0001 (TGFB, TGF-β positive control at 5 ng/mL for SNAI1 induction; IFNgamma, interferon-γ positive control at 5 ng/mL for CD274 induction).
Procedures were as previously described. Briefly, total RNA was extracted from tumor cells using an RNAeasy Kit (Qiagen). Reverse transcription reactions were performed with 1 μg of total RNA with the QuantiTect Reverse Transcription kit (Qiagen). Gene expression was measured using TaqMan™ master mix (Thermofisher, 4369510) and human gene probes as follows: SNAI (Hs00195591_m1), SNA2 (Hs00950344_m1), CDH1 (Hs01023895_m1), ACTB (Hs00357333_g1), CD274 (encodes PD-L1, Hs01125301_m1), CD155 (encodes PVR or TIGIT ligand, Hs00197846_m1), VIM (Hs00958111_m1), TGFB1 (Hs00998133_m1), and AHNAK (Hs01102463_m1).

A further assay relates to PD-L1. Put plainly: Flow cytometry of PD-L1 on DU145 cells. The assay is classed as cell-based, human. The following applies: MZ-1 50 nM, JQ1 400 nM. The procedure:
Single-cell suspensions were washed after collection and stained in ice-cold Ca^+2/Mg^+2-free PBS with a viability dye (Zombie NIR, BioLegend) for 20 min at 4° C. in the dark. Cell suspensions were then washed twice with ice-cold flow cytometry buffer (Ca^+2/Mg^+2-free PBS, supplemented with 2% FBS and 2 mM EDTA). Cell suspensions were then stained for PD-L1 (PE-conjugated, BD Biosciences). All cell suspensions were washed twice in ice cold flow cytometry buffer before analysis. Unstained cells and single-stained controls were used to calculate flow cytometry compensation. Data acquisition (typically 1 million events) was performed on a BD LSRII instrument at the Boston University Flow Cytometry Core Facility. Data analysis was carried out using FlowJo Software (version 10.6.1, Tree Star).
In general terms: In flow cytometry, cells or beads pass a laser one at a time.

A further assay deals with MCF-7 cells. The experiment in a line: EMT/CSC gene expression (RT-PCR, PCR array, IPA) in MCF-7 cells treated with adipocyte exosomes. The assay is classed as cell-based, human. The conditions noted are these: MCF7 cells; compared to control EVs. As to the method:
RNA was isolated from cells using RNeasy Plus Mini Kit (74136, Qiagen). From each sample, 1 μg of RNA was used to prepare 20 μL cDNA using QuantiTect Reverse Transcription Kit (Qiagen, 205313). Human RT2 Profiler™ PCR Array, including Epithelial to Mesenchymal Transition (EMT) (PAHS-090Z) and Cancer Stem Cell (PAHS-176ZC) arrays, were purchased from Qiagen. Each cDNA sample (102 μL comprised of 1 μg RNA) was mixed with 1,350 μL RT2 SYBR Green ROX qPCR Mastermix (Qiagen, 330522) and 1,248 μL RNAse-free water. A total volume of 2,700 μL was mixed by vortexing and transferred to a reservoir. Then, an 8 channel pipettor was used to take aliquots of reaction mix from the reservoir, to distribute 25 μL into each well of the array. PCR reactions were performed and results were analyzed using a 7500 Fast Real-Time PCR instrument.
All Ct values of the genes were normalized to the respective ACTB gene (delta Ct). […] For the control groups, delta.delta Ct was calculated using this formula: ΔΔCt=ΔCt (C1 or C2 or C3)—ΔCt (Control average). Then, fold-change was calculated using 2∧−ΔΔCt, (2 to the power of negative ΔΔCt). Next, the Z score was calculated based on this formula: Z score=(x-mean)/SD, where X is the fold-change. […]
To predict disease and function, and downstream pathways, data were analyzed through the use of Ingenuity Pathway Analysis, IPA (QIAGEN Inc.). […]

Another assay concerns 4T1 cells. The experiment in a line: Transwell migration assay with 4T1 cells. The assay is classed as cell-based, murine. The conditions noted are these: 50 nM MZ-1. As to the method:
FIGS. 9A-9D depict EMT induction in murine 4T1 cells treated with EVs from IS vs IR murine adipocytes. Murine 3T3-L1 adipocytes were differentiated from pre-adipocyte fibroblasts as published (24), treated with 250 pM murine TNFα overnight, as specified to induce insulin resistance (9), then adipocyte conditioned media was used as the source of EVs. (FIG. 9A) 4T1 cells were treated for 3 days with EVs from IS or IR adipocytes, vs. media control EVs, then cells were fixed for immunohistochemistry. Vimentin and E-cadherin, as mesenchymal or epithelial markers respectively, were visualized by fluorophore-conjugated primary anti-mouse antibodies, with phalloidin stain for cytoskeletal structure and DAPI counterstain for DNA. Bar, 10 μm. (FIG. 9B) RT-PCR validation of two selected EMT genes, induced by EVs. (FIG. 9C) Transwell migration assay with 4T1 cells exposed to IS vs IR EVs, or IR treated with 50 nM MZ-1 (25) to inhibit BRD4 and block migration (18,24). (FIG. 9D) Quantitation of B. (n=3; ***, P<0.005).

Another assay deals with BRD2, BRD3 and BRD4. The following applies: DU145 cells, cited from earlier work.

Take `Cc1sc2c(c1C)C(c1ccc(Cl)cc1)=N[C@@H](CC(=O)OC(C)(C)C)c1nnc(C)n1-2` [JQ1]: in the assay on DU145 cells, the “expression of SNAI1 induced by T2D plasma exosomes” value is listed as “not able to reduce expression below the BRD4-selective level” and the “transcription of CD274 induced by T2D plasma exosomes” value is “inhibit transcription to below baseline”. For the same compound, the “PD-L1 surface protein induced by T2D exosome treatment” value with PD-L1 is “inhibited”.

As to TGF-β, in the assay on MCF-7 cells, the “transcription of ZEB1 and SNAI2 readout genes” value is given as “Induction”.

In the case of `Cc1ncsc1-c1ccc(CNC(=O)[C@@H]2C[C@@H](O)CN2C(=O)[C@@H](NC(=O)COCCOCCOCCNC(=O)C[C@@H]2N=C(c3ccc(Cl)cc3)c3c(sc(C)c3C)-n3c(C)nnc32)C(C)(C)C)cc1` [MZ-1], in the assay with DU145 cells, the “expression of SNAI1 induced by T2D plasma exosomes” value was “inhibited expression” and the “transcription of CD274 induced by T2D plasma exosomes” value is given as “same inhibitory effect”. In addition, the “4T1 migration provoked by exosomes from IR adipocytes” value in the assay on 4T1 cells is recorded as “effectively ablated”. In the assay with PD-L1, the “PD-L1 surface protein induced by T2D exosome treatment” value was “inhibited”. The “elimination of BET proteins, low concentration” value in the assay on BRD2, BRD3 and BRD4 (50 nM) is “selective to eliminate BRD4 protein while preserving BRD2 and BRD3”. Moreover, in the assay on BRD2, BRD3 and BRD4 (400 nM), the “elimination of BET proteins, high doses” value is “eliminate all three somatic BET proteins”.
